Laboratory results reported in PubChem BioAssay (NCI).
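Method: 48-hour compound exposure of cells in 96-well plates, five concentrations, linear interpolation of endpoints. TGI is the concentration that stops growth completely.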

Key:
Assay in all cases: DTP human tumour cell line panel, 48 h
MDA-MB-231 breast = system: MDA-MB-231 breast
HCC-2998 colon = system: HCC-2998 colon
NCI/ADR-RES ovarian = system: NCI/ADR-RES ovarian
HOP-92 NSCLC = system: HOP-92 NSCLC
A498 renal = system: A498 renal
SF-268 CNS = system: SF-268 CNS
CAKI-1 renal = system: CAKI-1 renal
MALME-3M melanoma = system: MALME-3M melanoma
UACC-62 melanoma = system: UACC-62 melanoma
A549 NSCLC = system: A549 NSCLC
HOP-62 NSCLC = system: HOP-62 NSCLC
786-0 renal = system: 786-0 renal
COLO 205 colon = system: COLO 205 colon
HL-60(TB) leukemia = system: HL-60(TB) leukemia
SNB-75 CNS = system: SNB-75 CNS
SNB-19 CNS = system: SNB-19 CNS
RXF 393 renal = system: RXF 393 renal
NCI-H460 lung = system: NCI-H460 lung
HS 578T breast = system: HS 578T breast
SR leukemia = system: SR leukemia
PC-3 prostate = system: PC-3 prostate
HCT-116 colon = system: HCT-116 colon
SK-MEL-2 melanoma = system: SK-MEL-2 melanoma
TK-10 renal = system: TK-10 renal
IGROV1 ovarian = system: IGROV1 ovarian
NCI-H522 lung = system: NCI-H522 lung
SW-620 colon = system: SW-620 colon
MDA-MB-435 = system: MDA-MB-435
OVCAR-4 ovarian = system: OVCAR-4 ovarian
UACC-257 melanoma = system: UACC-257 melanoma
HCT-15 colon = system: HCT-15 colon
KM12 colon = system: KM12 colon
OVCAR-3 ovarian = system: OVCAR-3 ovarian
ACHN renal = system: ACHN renal
EKVX NSCLC = system: EKVX NSCLC
MDA-N = system: MDA-N
K-562 leukemia = system: K-562 leukemia
OVCAR-8 ovarian = system: OVCAR-8 ovarian
MCF7 breast = system: MCF7 breast
LOX IMVI melanoma = system: LOX IMVI melanoma
SF-295 CNS = system: SF-295 CNS
BT-549 breast = system: BT-549 breast
SK-MEL-28 melanoma = system: SK-MEL-28 melanoma
M14 melanoma = system: M14 melanoma
HT29 colon = system: HT29 colon
SK-MEL-5 melanoma = system: SK-MEL-5 melanoma
U251 CNS = system: U251 CNS
SN12C renal = system: SN12C renal
DU-145 prostate = system: DU-145 prostate
T-47D breast = system: T-47D breast
SF-539 CNS = system: SF-539 CNS
NCI-H226 lung = system: NCI-H226 lung
MOLT-4 leukemia = system: MOLT-4 leukemia
OVCAR-5 ovarian = system: OVCAR-5 ovarian
SK-OV-3 ovarian = system: SK-OV-3 ovarian
CCRF-CEM leukemia = system: CCRF-CEM leukemia
NCI-H23 lung = system: NCI-H23 lung
UO-31 renal = system: UO-31 renal
RPMI-8226 leukemia = system: RPMI-8226 leukemia

COc1ccc(CN=C2N/C(=C\c3ccccc3Cl)C(=O)N2C)cc1
TGI (MDA-MB-231 breast): 96.9 µM
TGI (HCC-2998 colon): 59.9 µM
TGI (NCI/ADR-RES ovarian): > 100 µM
TGI (HOP-92 NSCLC): 63.4 µM
TGI (A498 renal): 77.9 µM
TGI (SF-268 CNS): > 100 µM
TGI (CAKI-1 renal): > 100 µM
TGI (MALME-3M melanoma): > 100 µM
TGI (UACC-62 melanoma): 37.6 µM
TGI (A549 NSCLC): > 100 µM
TGI (HOP-62 NSCLC): > 100 µM
TGI (786-0 renal): 36.1 µM
TGI (COLO 205 colon): 58.8 µM
TGI (HL-60(TB) leukemia): 57.9 µM
TGI (SNB-75 CNS): 38.4 µM
TGI (SNB-19 CNS): > 100 µM
TGI (RXF 393 renal): > 100 µM
TGI (NCI-H460 lung): > 100 µM
TGI (HS 578T breast): > 100 µM
TGI (SR leukemia): 90 µM
TGI (PC-3 prostate): 96.6 µM
TGI (HCT-116 colon): 39.3 µM
TGI (SK-MEL-2 melanoma): 42.8 µM
TGI (TK-10 renal): > 100 µM
TGI (IGROV1 ovarian): 62.6 µM
TGI (NCI-H522 lung): 51.1 µM
TGI (SW-620 colon): 50.1 µM
TGI (MDA-MB-435): 46.8 µM
TGI (OVCAR-4 ovarian): 86.4 µM
TGI (UACC-257 melanoma): > 100 µM
TGI (HCT-15 colon): > 100 µM
TGI (KM12 colon): 52.2 µM
TGI (OVCAR-3 ovarian): 52.4 µM
TGI (ACHN renal): > 100 µM
TGI (EKVX NSCLC): > 100 µM
TGI (MDA-N): 44.5 µM
TGI (K-562 leukemia): > 100 µM
TGI (OVCAR-8 ovarian): 77.4 µM
TGI (MCF7 breast): 90.2 µM
TGI (LOX IMVI melanoma): 43 µM
TGI (SF-295 CNS): > 100 µM
TGI (BT-549 breast): 94.8 µM
TGI (SK-MEL-28 melanoma): > 100 µM
TGI (M14 melanoma): 36.2 µM
TGI (HT29 colon): 57.2 µM
TGI (SK-MEL-5 melanoma): 43.2 µM
TGI (U251 CNS): 40.7 µM
TGI (SN12C renal): 39.8 µM
TGI (DU-145 prostate): > 100 µM
TGI (T-47D breast): 48.8 µM
TGI (SF-539 CNS): 72.7 µM
TGI (NCI-H226 lung): > 100 µM
TGI (MOLT-4 leukemia): > 100 µM
TGI (OVCAR-5 ovarian): > 100 µM
TGI (SK-OV-3 ovarian): > 100 µM

Clc1ccc(-c2noc(CN3CCCCC3)n2)cc1
TGI (MDA-MB-231 breast): > 100 µM
TGI (HCC-2998 colon): > 100 µM
TGI (NCI/ADR-RES ovarian): > 100 µM
TGI (HOP-92 NSCLC): > 100 µM
TGI (A498 renal): > 100 µM
TGI (SF-268 CNS): > 100 µM
TGI (CAKI-1 renal): > 100 µM
TGI (MALME-3M melanoma): > 100 µM
TGI (UACC-62 melanoma): > 100 µM
TGI (A549 NSCLC): > 100 µM
TGI (HOP-62 NSCLC): > 100 µM
TGI (786-0 renal): > 100 µM
TGI (COLO 205 colon): > 100 µM
TGI (HL-60(TB) leukemia): > 100 µM
TGI (SNB-75 CNS): > 100 µM
TGI (SNB-19 CNS): > 100 µM
TGI (RXF 393 renal): > 100 µM
TGI (NCI-H460 lung): > 100 µM
TGI (HS 578T breast): > 100 µM
TGI (SR leukemia): > 100 µM
TGI (PC-3 prostate): > 100 µM
TGI (HCT-116 colon): > 100 µM
TGI (SK-MEL-2 melanoma): > 100 µM
TGI (TK-10 renal): > 100 µM
TGI (IGROV1 ovarian): > 100 µM
TGI (NCI-H522 lung): > 100 µM
TGI (SW-620 colon): > 100 µM
TGI (MDA-MB-435): > 100 µM
TGI (OVCAR-4 ovarian): > 100 µM
TGI (UACC-257 melanoma): > 100 µM
TGI (HCT-15 colon): > 100 µM
TGI (KM12 colon): > 100 µM
TGI (OVCAR-3 ovarian): > 100 µM
TGI (ACHN renal): > 100 µM
TGI (EKVX NSCLC): > 100 µM
TGI (MDA-N): > 100 µM
TGI (CCRF-CEM leukemia): > 100 µM
TGI (NCI-H23 lung): > 100 µM
TGI (K-562 leukemia): > 100 µM
TGI (OVCAR-8 ovarian): > 100 µM
TGI (MCF7 breast): > 100 µM
TGI (SF-295 CNS): > 100 µM
TGI (BT-549 breast): > 100 µM
TGI (SK-MEL-28 melanoma): > 100 µM
TGI (M14 melanoma): > 100 µM
TGI (UO-31 renal): > 100 µM
TGI (HT29 colon): > 100 µM
TGI (SK-MEL-5 melanoma): > 100 µM
TGI (U251 CNS): > 100 µM
TGI (SN12C renal): > 100 µM
TGI (DU-145 prostate): > 100 µM
TGI (T-47D breast): > 100 µM
TGI (SF-539 CNS): > 100 µM
TGI (NCI-H226 lung): > 100 µM
TGI (MOLT-4 leukemia): > 100 µM
TGI (OVCAR-5 ovarian): > 100 µM
TGI (RPMI-8226 leukemia): > 100 µM
TGI (SK-OV-3 ovarian): > 100 µM
